According to US10835614B2, “Poly(diol fumarates) and poly(diol fumarate-co-succinates)” (William Marsh Rice University, priority 2016, dated 2020):
Converted amounts (≈) assume the structure as drawn.

What was measured:
Assay in all cases: MIC, CLSI M38-A2 broth microdilution antifungal susceptibility testing
Rhiozpus oryzae R0969 = assay type: cell-based, R. oryzae; conditions: diols tested from 1024 μg/mL to 0.0625 μg/mL, triplicate; for MIC: Rhizopus arrhizus, R0969, read-out: minimum inhibitory concentration (MIC), R. oryzae
Experimental: (§1) A. fumigatus Af293, C. albicans Y4215 and Rhiozpus oryzae R0969, all clinical isolates of pathogenic species, were used to determine the antifungal activity of three different terminal diols: 1,6-hexanediol; 1,8-octanediol; and 1,10-decanediol (all purchased from Sigma-Aldrich, St. Louis, Mo.). Briefly, minimum inhibitory concentration (MIC) was determined following the Clinical Laboratory & Standards Institute (CLSI) M38-A2 broth microdilution antifungal susceptibility testing method. […] The experiment was performed in triplicate for each species and each diol.

C. albicans Y4215 = assay type: cell-based; conditions: diols tested from 1024 μg/mL to 0.0625 μg/mL, triplicate; for MIC: Candida albicans, Y4215, read-out: minimum inhibitory concentration (MIC), C. albicans
Experimental: as §1

A. fumigatus Af293 = assay type: cell-based; conditions: diols tested from 1024 μg/mL to 0.0625 μg/mL, triplicate; for MIC: Aspergillus fumigatus, AF293, read-out: minimum inhibitory concentration (MIC), A. fumigatus
Experimental: as §1

OCCCCCCO [1,6-Hexanediol, 1,6-hexanediol]
MIC (Rhiozpus oryzae R0969): ≥ 1020 µg/mL
minimum inhibitory concentration (MIC), R. oryzae (Rhiozpus oryzae R0969): did not demonstrate activity
MIC (C. albicans Y4215): ≥ 1020 µg/mL
minimum inhibitory concentration (MIC), C. albicans (C. albicans Y4215): did not demonstrate activity
MIC (A. fumigatus Af293): ≥ 1020 µg/mL
minimum inhibitory concentration (MIC), A. fumigatus (A. fumigatus Af293): did not demonstrate activity

OCCCCCCCCO [1,8-Octanediol, 1,8-octanediol]
MIC (Rhiozpus oryzae R0969): ≥ 1020 µg/mL
minimum inhibitory concentration (MIC), R. oryzae (Rhiozpus oryzae R0969): did not demonstrate activity
MIC (C. albicans Y4215): ≥ 1020 µg/mL
minimum inhibitory concentration (MIC), C. albicans (C. albicans Y4215): did not demonstrate activity
MIC (A. fumigatus Af293): ≥ 1020 µg/mL
minimum inhibitory concentration (MIC), A. fumigatus (A. fumigatus Af293): did not demonstrate activity

OCCCCCCCCCCO [1,10-Decanediol, 1,10-decanediol]
MIC (Rhiozpus oryzae R0969): 1020 µg/mL (≈ 5.88 mM)
MIC (C. albicans Y4215): ≥ 1020 µg/mL
MIC (A. fumigatus Af293): 256 µg/mL (≈ 1.47 mM)
